Experiments:
[1] = tested on: SF-268 tumor cell line; assay: SRB cytotoxicity assay, SF-268; assay type: cell-based, human; conditions: SRB method, mean ± s, n=3
Protocol: (§1) The in vitro cytotoxicities of compounds 1–11 were evaluated against the SF-268, MCF-7, NCI-H460, and HepG-2 tumor cell lines by the Sulforhodamine B (SRB) method.
(§2) Cytotoxicities of compounds (1–11) were assayed against four tumor cell lines SF-268, MCF-7, NCI-H460, and HepG-2. Assays were performed by the SRB method.

[2] = tested on: MCF-7 tumor cell line; assay: SRB cytotoxicity assay, MCF-7; assay type: cell-based, human; conditions: SRB method, mean ± s, n=3
Protocol: as §1, §2

[3] = tested on: NCI-H460 tumor cell line; assay: SRB cytotoxicity assay, NCI-H460; assay type: cell-based, human; conditions: SRB method, mean ± s, n=3
Protocol: as §1, §2

[4] = tested on: HepG-2 tumor cell line; assay: SRB cytotoxicity assay, HepG-2; assay type: cell-based, human; conditions: SRB method, mean ± s, n=3
Protocol: as §1, §2

[5] = target: α-glucosidase; assay: α-glucosidase inhibitory activity assay; assay type: biochemical; conditions: in vitro; mean ± s, n=3
Protocol: All compounds were evaluated in vitro for α-glucosidase inhibitory activities.
An assay of α-glucosidase inhibitory activity was performed as previously described.

[6] = tested on: SF-268, MCF-7, NCI-H460, and HepG-2 tumor cell lines; assay: SRB cytotoxicity, four tumor cell lines taken together; assay type: cell-based, human; conditions: for cytotoxic / inhibitory activity against the four tumor cell lines (in words): SF-268, MCF-7, NCI-H460, HepG-2, SRB method; for IC50: Homo sapiens, range over SF-268, MCF-7, NCI-H460, HepG-2, read-out: IC50 values against the four tumor cell lines
Protocol: as §1, §2

| Compound | IC50 ([1]; Homo sapiens, SF-268) | IC50 ([2]; Homo sapiens, MCF7) | IC50 ([3]; Homo sapiens, NCI-H460) | IC50 ([4]; Homo sapiens, HepG2) | IC50 [5] | IC50 [1] | IC50 [2] | IC50 [3] | IC50 [4] | cytotoxic / inhibitory activity against the four tumor cell lines (in words) [6] | IC50 [6] |
| --- | --- | --- | --- | --- | --- | --- | --- | --- | --- | --- | --- |
| CSC1(Cc2ccccc2)NC(=O)C(CO)NC1=O (stereo not shown) [Compound 8, 3-benzyl-6-(hydroxymethyl)-3-(methylthio)piperazine-2,5-dione] | > 100 µM | > 100 µM | > 100 µM | > 100 µM | > 500 µM |  |  |  |  |  |  |
| N.N.[Cl][Pt][Cl] [cisplatin, reference compound] |  |  |  |  |  | 2.37 ± 0.35 µM | 3.09 ± 0.27 µM | 2.43 ± 0.15 µM | 1.39 ± 0.18 µM |  |  |
| CS[C@]1(CO)C(=O)N2[C@H]3C(=CC=C[C@@H]3OC(C)=O)C[C@@]2(SC)C(=O)N1C [Compound 10, 6-acetylbis(methylthio)gliotoxin] | 34 ± 3.6 µM | 3.1 ± 0.1 µM | 5.4 ± 0.6 µM | 7 ± 0.17 µM | > 500 µM |  |  |  |  | significant inhibitory activities |  |
| CSC1(CO)C(=O)n2c(cc3ccccc32)C(=O)N1C (stereo not shown) [Compound 1, dichotocejpin A] | 35.7 ± 2.1 µM | 29.5 ± 2.3 µM | > 100 µM | 28.9 ± 3 µM | 138 ± 6.7 µM |  |  |  |  | inactive or weak |  |
| CN1C(=O)[C@]23Cc4ccccc4N2C(=O)[C@@]1(CO)SS3 [Compound 4, 6-deoxy-5a,6-didehydrogliotoxin] | 1.35 ± 0.05 µM | 0.68 ± 0.02 µM | 1.27 ± 0.04 µM | 1.52 ± 0.03 µM | > 500 µM |  |  |  |  |  | 0.08 to 1.52 µM |
| CS[C@@]1(CO)NC(=O)[C@@](Cc2ccccc2)(SC)NC1=O [Compound 7, bis-N-norgliovictin] | > 100 µM | > 100 µM | > 100 µM | > 100 µM | > 500 µM |  |  |  |  |  |  |
| CC(=O)O[C@H]1C=CC=C2C[C@]34SS[C@](CO)(C(=O)N3C21)N(C)C4=O (stereo partly shown) [Compound 6, acetylgliotoxin] | 0.25 ± 0.03 µM | 0.22 ± 0.04 µM | 0.32 ± 0.02 µM | 0.49 ± 0.07 µM | > 500 µM |  |  |  |  |  | 0.08 to 1.52 µM |
| bisdethiobis(methylthio)gliotoxin [Compound 9] |  |  |  |  | > 500 µM | > 100 µM | > 100 µM | > 100 µM | > 100 µM |  |  |
| CN1C(=O)[C@]2(O)Cc3ccccc3N2C(=O)[C@H]1CO [Compound 3, dichotocejpin C] | > 100 µM | > 100 µM | > 100 µM | > 100 µM | > 500 µM |  |  |  |  | inactive or weak |  |
| CN1C(=O)[C@]23CC4=CC=C[C@H](O)[C@H]4N2C(=O)[C@@]1(CO)SS3 [Compound 5, gliotoxin] | 0.24 ± 0.1 µM | 0.08 µM | 0.24 ± 0.01 µM | 0.21 ± 0.01 µM | > 500 µM |  |  |  |  |  | 0.08 to 1.52 µM |
| C=C1C(=O)N2C3C(=CC=CC3OC(C)=O)CC2(O)C(=O)N1C (stereo not shown) [Compound 2, dichotocejpin B] | > 100 µM | > 100 µM | > 100 µM | > 100 µM | > 500 µM |  |  |  |  | inactive or weak |  |
| C=c1c(=O)n2c(cc3ccccc32)c(=O)n1C [Compound 11, 1,2,3,4-tetrahydro-2-methyl-3-methylene-1,4-dioxopyrazino[1,2-a]indole] | 3.3 ± 0.28 µM | 4.67 ± 1.4 µM | 12.3 ± 0.24 µM | 2.29 ± 0.3 µM | > 500 µM |  |  |  |  | significant inhibitory activities |  |

Reference: article PMC5039535, “Dichotocejpins A–C: New Diketopiperazines from a Deep-Sea-Derived Fungus Dichotomomyces cejpii FS110” (Marine Drugs, 2016)
